# Experimental data: patent US7524975B2, “Peroxisome proliferator activated receptor ligand and process for producing the same” (Kaneka Corporation, priority 2001, dated 2009)
# Target: T1, mouse PPARγ ligand-binding site (Mus musculus, UniProt P37238)
# T1 construct: expressed in transfected cells; host or cells: CV-1 cells (African green monkey kidney)
# T1 sequence (P37238 174-475 isoform P37238-2): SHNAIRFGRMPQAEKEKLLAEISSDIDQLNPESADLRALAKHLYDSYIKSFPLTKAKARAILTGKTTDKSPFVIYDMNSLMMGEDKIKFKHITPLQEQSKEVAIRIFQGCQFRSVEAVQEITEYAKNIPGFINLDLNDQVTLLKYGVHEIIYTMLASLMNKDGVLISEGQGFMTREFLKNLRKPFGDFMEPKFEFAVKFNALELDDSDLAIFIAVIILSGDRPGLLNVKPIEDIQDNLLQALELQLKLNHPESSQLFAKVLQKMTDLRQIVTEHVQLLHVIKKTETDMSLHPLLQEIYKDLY
# Assay: Measurement of PPARγ ligand activity (GAL4 chimera luciferase reporter in CV-1 cells)
# Format: cell-based
# Conditions: CV-1 cells, 24 hours, specific activity relative to untreated control (DMSO) = 1.00
# Experimental: CV-1 cells (cultured cells derived from the kidney of a male African green monkey) were inoculated on a 96-well culture plate in a concentration of 6×10^3 cells/well and incubated at 37° C. in 5% CO2 for 24 hours. The medium used was DMEM (Dulbecco's Modified Eagle Medium: GIBCO) containing 10% FBS (fetal bovine serum), 10 ml/L penicillin and streptomycin solution (containing 5000 IU/ml and 5,000 μg/ml, respectively: GIBCO) and 37 mg/L ascorbic acid (Wako Pure Chemical Industries, Ltd.). […] 4xUASg-luc is a reporter plasmid comprising four GAL4 response sequences (UASg) integrated into a region upstream of a luciferase gene. At about 24 hours after transfection, the medium was exchanged with a sample-containing medium, and the cells were cultured for 24 hours (n=4). The sample-containing medium was prepared by dissolving a sample in dimethyl sulfoxide (DMSO) in an amount of 1/1000 based on the medium, while for the untreated control, DMSO in an amount of 1/1000 based on the medium was used in place of the sample. After the cells were washed with a Ca- and Mg-containing phosphate buffered physiological saline (PBS+), LucLite (Packard) was added thereto, and the intensity of luciferase luminescence was measured with a TopCount microplate scintillation/luminescence counter (Packard).
# As the control group, pM (plasmid from which the PPARγ ligand-binding site gene was removed) was measured in place of pM-mPPARγ in the same manner as for the measurement group. For each sample, the ratio (measurement group/control group) of the average luminescence intensity of the measurement group (n=4) to that of the control group was calculated, and the specific activity relative to the activity of the untreated control was regarded as the PPARγ ligand activity of the sample.
Compound,PPARγ ligand activity (added concentration 2 μg/ml),PPARγ ligand activity (added concentration 5 μg/ml),PPARγ ligand activity (added concentration 10 μg/ml)
"COc1c(CC=C(C)C)c(O)cc2oc(=O)c(-c3ccc(O)cc3O)cc12 [Compound 1, Glycycoumarin]",2.03,2.79,3.82
"CC(C)=CCc1cc(-c2coc3c(CC=C(C)C)c(O)cc(O)c3c2=O)cc(O)c1O [Compound 3, Glyurallin B]",1.28,1.96,2.73
"COc1cc2c(c(OC)c1CC=C(C)C)C=C(c1ccc(O)cc1O)CO2 [Compound 4, 3-(2′,4′-dihydroxyphenyl)-6-(3″,3″-dimethylallyl)-5,7-dimethoxy-2H-chromene]",2.95,3.72,4.00
"COc1cc(O)ccc1/C=C/C(=O)c1ccc(O)cc1 [Compound 5, Echinatin]",1.45,2.35,2.49
"CC(C)=CCc1cc(-c2oc3cc(O)cc(O)c3c(=O)c2O)ccc1O [Compound 6, Isolicoflavonol]",1.73,2.50,3.82
"COc1c2c(cc(O)c1CC=C(C)C)OCC(c1ccc(O)cc1O)=C2 [Compound 7, Dehydroglyasperin C]",2.90,3.73,4.41
"COc1cc2c(c(O)c1CC=C(C)C)C(=O)C(c1ccc(O)cc1O)CO2 (stereo not drawn) [Compound 8, Glyasperin B]",2.60,3.53,3.02
"COc1cc(O)cc2c1C(=O)C(c1cc(O)c3c(c1)C=CC(C)(C)O3)CO2 (stereo not drawn) [Compound 9, Glycyrrhisoflavanone]",2.01,3.45,4.68
"CC(C)=CCc1c(O)cc(O)c2c(=O)c(-c3ccc(O)cc3)coc12 [Compound 10, Lupiwighteone]",1.67,2.53,3.75
"COc1cc2c(c(OC)c1CC=C(C)C)CC(c1ccc(O)cc1O)CO2 (stereo not drawn) [Compound 11, Glyasperin D]",3.22,3.28,4.06
"CC1(C)C=Cc2cc(-c3coc4cc(O)cc(O)c4c3=O)cc(O)c2O1 [Compound 12, Semilicoisoflavone B]",1.86,2.66,3.15
"O=C(/C=C/c1ccc(O)cc1)c1ccc(O)cc1O [Compound 13, Isoliquiritigenin]",1.47,2.71,3.39
"COc1c(-c2ccc(O)cc2)oc2cc(O)cc(O)c2c1=O [Compound 14, Kaempferol3-O-methylester]",1.86,2.37,3.47
"CC(C)=CCc1c(O)cc2oc(-c3ccc(O)cc3)c(O)c(=O)c2c1O [Compound 15, Licoflavonol]",1.44,2.27,4.07
"COc1c(-c2ccc(O)cc2)oc2cc(O)c(CC=C(C)C)c(O)c2c1=O [Compound 16, Topazolin]",2.56,3.64,5.84
"CC(C)=CCc1cc(-c2coc3cc(O)cc(O)c3c2=O)cc(O)c1O [Compound 17, Glycyrrhisoflavone]",1.78,3.05,3.20
"CC1(C)C=Cc2c(ccc3c2OC[C@@H](c2ccc(O)cc2O)C3)O1 [Compound 18, Glabridin]",1.64,2.15,1.98
"CC1(C)C=Cc2c(O)ccc(C3=Cc4ccc(O)cc4OC3)c2O1 [Compound 19, Glabrene]",1.78,3.44,2.89
